Reference: paper PMC11876601 (Molecular Systems Biology, 2025)
Where two headings read alike, the source gives them in different places.

Tests used:
Assay in all cases: cells
AsPC-1 [1] = system: AsPC-1; parameters: ATPlite luminescence viability of PDAC cell lines, 11-dose single-agent curves, 4-parameter fit; conditions: Homo sapiens, ASPC1, 72 h, read-out: EC50 [nM]
Procedure, shortened: (§1)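 cells (1000 to 5000 per well) seeded 24 h before drug addition in a combination screen at 0.2% final DMSO. Controls were drug-free wells (negative) and 5 µM staurosporine (positive).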

BxPC-3 [2] = system: BxPC-3; parameters: ATPlite luminescence viability of PDAC cell lines, 11-dose single-agent curves, 4-parameter fit; conditions: Homo sapiens, BXPC-3, 72 h, read-out: EC50 [nM]
Procedure, shortened: as §1

Capan-1 [3] = system: Capan-1; parameters: ATPlite luminescence viability of PDAC cell lines, 11-dose single-agent curves, 4-parameter fit; conditions: Homo sapiens, CAPAN-1, 72 h, read-out: EC50 [nM]
Procedure, shortened: as §1

Colo-357 [4] = system: Colo-357; parameters: ATPlite luminescence viability of PDAC cell lines, 11-dose single-agent curves, 4-parameter fit; conditions: Homo sapiens, COLO357, 72 h, read-out: EC50 [nM]
Procedure, shortened: as §1

Dan-G [5] = system: Dan-G; parameters: ATPlite luminescence viability of PDAC cell lines, 11-dose single-agent curves, 4-parameter fit; conditions: 72 h, read-out: EC50 [nM]
Procedure, shortened: as §1

FAMPAC [6] = system: FAMPAC; parameters: ATPlite luminescence viability of PDAC cell lines, 11-dose single-agent curves, 4-parameter fit; conditions: 72 h, read-out: EC50 [nM]
Procedure, shortened: as §1

HPDE [7] = system: HPDE; parameters: ATPlite luminescence viability of PDAC cell lines, 11-dose single-agent curves, 4-parameter fit; conditions: HPDE, 72 h, read-out: EC50 [nM]
Procedure, shortened: as §1

MiaPaCa-2 [8] = system: MiaPaCa-2; parameters: ATPlite luminescence viability of PDAC cell lines, 11-dose single-agent curves, 4-parameter fit; conditions: Homo sapiens, MIA PaCa-2, 72 h, read-out: EC50 [nM]
Procedure, shortened: as §1

PANC-1 [9] = system: PANC-1; parameters: ATPlite luminescence viability of PDAC cell lines, 11-dose single-agent curves, 4-parameter fit; conditions: Homo sapiens, PANC-1, 72 h, read-out: EC50 [nM]
Procedure, shortened: as §1

PSN-1 [10] = system: PSN-1; parameters: ATPlite luminescence viability of PDAC cell lines, 11-dose single-agent curves, 4-parameter fit; conditions: Homo sapiens, PSN1, 72 h, read-out: EC50 [nM]
Procedure, shortened: as §1

PaTu-8988-T [11] = system: PaTu-8988-T; parameters: ATPlite luminescence viability of PDAC cell lines, 11-dose single-agent curves, 4-parameter fit; conditions: Homo sapiens, PaTu 8988t, 72 h, read-out: EC50 [nM]
Procedure, shortened: as §1

Suit2-07 [12] = system: Suit2-07; parameters: ATPlite luminescence viability of PDAC cell lines, 11-dose single-agent curves, 4-parameter fit; conditions: 72 h, read-out: EC50 [nM]
Procedure, shortened: as §1

HuP-T4 [13] = system: HuP-T4; parameters: Viability of PDAC cell lines, ATPlite luminescence, 11-dose single-agent curve fit; conditions: Homo sapiens, HuP-T4, 72 h, read-out: EC50 [nM]
Procedure, shortened: (§2)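 cells (1000 to 5000 per well) seeded 24 h before drug addition in a screen at 0.2% final DMSO. Controls were drug-free wells (negative) and 5 µM staurosporine (positive).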

AsPC-1 [14] = system: AsPC-1; parameters: Viability of PDAC cell lines, ATPlite luminescence, 11-dose single-agent curve fit; conditions: Homo sapiens, ASPC1, 72 h, read-out: EC50 [nM]
Procedure, shortened: as §2

Colo-357 [15] = system: Colo-357; parameters: Viability of PDAC cell lines, ATPlite luminescence, 11-dose single-agent curve fit; conditions: Homo sapiens, COLO357, 72 h, read-out: EC50 [nM]
Procedure, shortened: as §2

PANC-1 [16] = system: PANC-1; parameters: Viability of PDAC cell lines, ATPlite luminescence, 11-dose single-agent curve fit; conditions: Homo sapiens, PANC-1, 72 h, read-out: EC50 [nM]
Procedure, shortened: as §2

HuP-T4 [17] = system: HuP-T4; parameters: ATPlite luminescence viability of PDAC cell lines, 11-dose single-agent curves, 4-parameter fit; conditions: Homo sapiens, HuP-T4, 72 h, read-out: EC50 [nM]
Procedure, shortened: as §1

Capan-1 [18] = system: Capan-1; parameters: Viability of PDAC cell lines, ATPlite luminescence, 11-dose single-agent curve fit; conditions: Homo sapiens, CAPAN-1, 72 h, read-out: EC50 [nM]
Procedure, shortened: as §2

HPDE [19] = system: HPDE; parameters: Viability of PDAC cell lines, ATPlite luminescence, 11-dose single-agent curve fit; conditions: HPDE, 72 h, read-out: EC50 [nM]
Procedure, shortened: as §2

PSN-1 [20] = system: PSN-1; parameters: Viability of PDAC cell lines, ATPlite luminescence, 11-dose single-agent curve fit; conditions: Homo sapiens, PSN1, 72 h, read-out: EC50 [nM]
Procedure, shortened: as §2

PaTu-8988-T [21] = system: PaTu-8988-T; parameters: Viability of PDAC cell lines, ATPlite luminescence, 11-dose single-agent curve fit; conditions: Homo sapiens, PaTu 8988t, 72 h, read-out: EC50 [nM]
Procedure, shortened: as §2

BxPC-3 [22] = system: BxPC-3; parameters: Viability of PDAC cell lines, ATPlite luminescence, 11-dose single-agent curve fit; conditions: Homo sapiens, BXPC-3, 72 h, read-out: EC50 [nM]
Procedure, shortened: as §2

Dan-G [23] = system: Dan-G; parameters: Viability of PDAC cell lines, ATPlite luminescence, 11-dose single-agent curve fit; conditions: 72 h, read-out: EC50 [nM]
Procedure, shortened: as §2

Suit2-07 [24] = system: Suit2-07; parameters: Viability of PDAC cell lines, ATPlite luminescence, 11-dose single-agent curve fit; conditions: 72 h, read-out: EC50 [nM]
Procedure, shortened: as §2

FAMPAC [25] = system: FAMPAC; parameters: Viability of PDAC cell lines, ATPlite luminescence, 11-dose single-agent curve fit; conditions: 72 h, read-out: EC50 [nM]
Procedure, shortened: as §2

MiaPaCa-2 [26] = system: MiaPaCa-2; parameters: Viability of PDAC cell lines, ATPlite luminescence, 11-dose single-agent curve fit; conditions: Homo sapiens, MIA PaCa-2, 72 h, read-out: EC50 [nM]
Procedure, shortened: as §2

SMILES | EC50 (AsPC-1 [1]) [nM] | EC50 (BxPC-3 [2]) [nM] | EC50 (Capan-1 [3]) [nM] | EC50 (Colo-357 [4]) [nM] | EC50 (Dan-G [5]) [nM] | EC50 (FAMPAC [6]) [nM] | EC50 (HPDE [7]) [nM] | EC50 (MiaPaCa-2 [8]) [nM] | EC50 (PANC-1 [9]) [nM] | EC50 (PSN-1 [10]) [nM] | EC50 (PaTu-8988-T [11]) [nM] | EC50 (Suit2-07 [12]) [nM] | EC50 (HuP-T4 [13]) [nM] | EC50 (AsPC-1 [14]) [nM] | EC50 (PANC-1 [16]) [nM] | EC50 (HPDE [19]) [nM] | other results
CC1(C)CC=C(c2nc(C3CC(C)(C)OC(C)(C)C3)ccc2NC(=O)c2nc(C#N)c[nH]2)CC1 [Edicotinib] | 2570 | 1960 | 3970 | 4490 | 3250 | 2850 | 2070 | 3040 | 3070 | 2160 | 2070 | 2380 | 1370 |  |  |  | 
COc1cc2c(Oc3ccc4[nH]c(C)cc4c3F)ccnc2cc1OCC1(N)CC1 [Anlotinib] | 3160 | 1520 | 2440 | 2350 | 1850 | 1580 | 6100 | 1720 | 1960 | 1920 | 1520 | 1270 | > 10000 |  |  |  | 
CNC(=O)c1cc(Oc2ccc(NC(=O)Nc3ccc(Cl)c(C(F)(F)F)c3)cc2)ccn1 [Sorafenib] |  | 10200 | 8320 |  | 7810 | > 10000 | 7960 | > 10000 |  | 3820 | > 10000 | 9770 | 10200 | > 10000 | 7780 |  | EC50 (Colo-357 [15]): 4370 nM
COc1cc2c(Oc3ccc4[nH]c(C)cc4c3F)ncnc2cc1OCCCN1CCCC1 [Cediranib] | 7780 | 7970 |  | 10300 | 6330 | > 10000 |  | 10100 |  | > 10000 | 6380 | > 10000 |  |  | 7310 | 4910 | EC50 (HuP-T4 [17]): 8450 nM; EC50 (Capan-1 [18]): 8290 nM
C[C@@H](Oc1cc(-c2cnn(C3CCNCC3)c2)cnc1N)c1c(Cl)ccc(F)c1Cl [Crizotinib] | 7880 | > 10000 |  | 3820 | 2500 | 5990 | 8110 | 840 | > 10000 | 10200 | > 10000 | 2260 | 2760 |  |  |  | EC50 (Capan-1 [18]): 1780 nM
CN1CCN(CCOc2cc(OC3CCOCC3)c3c(Nc4c(Cl)ccc5c4OCO5)ncnc3c2)CC1 [Saracatinib] |  | 863 | 2210 |  | 1160 | 4910 | 1430 | 51.6 |  |  |  | 1340 | > 10000 | 4140 | 142 |  | EC50 (Colo-357 [15]): 869 nM; EC50 (PSN-1 [20]): 4260 nM; EC50 (PaTu-8988-T [21]): 244 nM
CCCCCCCCCCCCCCCCCCOP(=O)([O-])OC1CC[N+](C)(C)CC1 [Perifosine] |  |  |  | > 10000 |  | 3030 | 1280 | 2990 | 2590 | 2340 |  | 2140 | 0.04 | > 10000 |  |  | EC50 (BxPC-3 [22]): 1410 nM; EC50 (Capan-1 [18]): > 10000 nM; EC50 (Dan-G [23]): > 10000 nM; EC50 (PaTu-8988-T [21]): 9320 nM
CO[C@@H]1[C@H](N(C)C(=O)c2ccccc2)C[C@H]2O[C@]1(C)n1c3ccccc3c3c4c(c5c6ccccc6n2c5c31)C(=O)NC4 [Midostaurin] |  |  |  |  |  |  |  |  |  |  | 385 |  |  |  |  | 221 | EC50 (HuP-T4 [17]): 692 nM
COc1cc2nccc(Oc3ccc(NC(=O)Nc4cc(C)on4)c(Cl)c3)c2cc1OC [Tivozanib] |  | > 10000 | 9830 | 6590 | > 10000 | > 10000 |  | > 10000 |  | 5040 | > 10000 |  | 4120 | 6600 | > 10000 | > 10000 | EC50 (Suit2-07 [24]): > 10000 nM
O=C(Nc1ccc(OC(F)(F)Cl)cc1)c1cnc(N2CC[C@@H](O)C2)c(-c2cc[nH]n2)c1 [Asciminib] |  |  | 3820 | > 10000 |  |  |  |  |  |  |  |  | 3860 | 1470 | 4520 | 4830 | EC50 (BxPC-3 [22]): 794 nM; EC50 (Dan-G [23]): 7610 nM; EC50 (FAMPAC [25]): > 10000 nM; EC50 (MiaPaCa-2 [26]): 2770 nM; EC50 (PSN-1 [20]): 1730 nM; EC50 (PaTu-8988-T [21]): 1350 nM; EC50 (Suit2-07 [24]): 3.54 nM
CN1CCC(COc2cnc(-c3cccc(Cn4nc(-c5cccc(C#N)c5)ccc4=O)c3)nc2)CC1 [Tepotinib] | > 10000 | 10300 | 23.4 | 11.5 | 8.91 | > 10000 |  | 7010 | 3.11 | 4160 | 6390 | 7810 | 268 |  |  | 7650 | 
CNC(=O)c1cc(Oc2ccc(NC(=O)Nc3ccc(Cl)c(C(F)(F)F)c3)c(F)c2)ccn1 [Regorafenib] | 2150 | 7410 | 6350 |  | 4480 | > 10000 | 9210 | 4480 | > 10000 | 1430 | > 10000 | > 10000 | > 10000 |  |  |  | EC50 (Colo-357 [15]): 7480 nM
COc1cc(OC)c(/C=C/S(=O)(=O)Cc2ccc(OC)c(NCC(=O)O)c2)c(OC)c1 [Rigosertib] | 863 | 63.2 | 178 | 256 | 66 | 28.2 |  | 324 | 313 | 86.5 | 607 | 2170 | 809 |  |  | 48.2 | 
Cc1nc(-c2cn3c(n2)-c2ccc(-c4cnn(C(C)(C)C(N)=O)c4)cc2OCC3)n(C(C)C)n1 [Taselisib] | 873 | 245 | 2920 | 27.1 | 37.1 |  | 826 | 446 | 1570 |  | 459 | 141 | 19.8 |  |  |  | EC50 (FAMPAC [25]): > 10000 nM; EC50 (PSN-1 [20]): 7930 nM
O=C1NC(=O)[C@@H](c2cn3c4c(cccc24)CCC3)[C@@H]1c1c[nH]c2ccccc12 [Tivantinib] | 346 |  | 603 | 536 | 412 | 317 |  | 313 | 389 | 215 | 347 | 191 | > 10000 |  |  | 143 | 
